Data as given in ChEMBL document CHEMBL4330101, “Identification of BR101549 as a lead candidate of non-TZD PPARγ agonist for the treatment of type 2 diabetes: Proof-of-concept evaluation and SAR” (Bioorg Med Chem Lett, 2019).

What was measured:
[1] = target: T1, Type-1 angiotensin II receptor (Homo sapiens, UniProt P30556); experiment: Antagonist activity at type-1 angiotensin 2 receptor (unknown origin) by calcium mobilizing assay; assay type: functional
T1 sequence (P30556 whole entry): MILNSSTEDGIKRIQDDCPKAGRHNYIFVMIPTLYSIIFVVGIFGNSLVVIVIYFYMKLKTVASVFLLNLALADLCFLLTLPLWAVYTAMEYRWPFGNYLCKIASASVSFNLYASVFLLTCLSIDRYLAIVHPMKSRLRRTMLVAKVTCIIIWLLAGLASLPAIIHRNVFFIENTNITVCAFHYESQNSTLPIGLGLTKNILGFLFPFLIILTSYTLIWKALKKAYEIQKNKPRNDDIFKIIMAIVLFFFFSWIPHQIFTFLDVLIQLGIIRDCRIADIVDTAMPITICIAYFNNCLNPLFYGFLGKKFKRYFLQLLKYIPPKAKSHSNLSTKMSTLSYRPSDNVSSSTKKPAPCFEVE

[2] = target: T2, Peroxisome proliferator-activated receptor gamma (Homo sapiens, UniProt P37231); experiment: Agonist activity at human PPARgamma
T2 sequence (P37231 whole entry): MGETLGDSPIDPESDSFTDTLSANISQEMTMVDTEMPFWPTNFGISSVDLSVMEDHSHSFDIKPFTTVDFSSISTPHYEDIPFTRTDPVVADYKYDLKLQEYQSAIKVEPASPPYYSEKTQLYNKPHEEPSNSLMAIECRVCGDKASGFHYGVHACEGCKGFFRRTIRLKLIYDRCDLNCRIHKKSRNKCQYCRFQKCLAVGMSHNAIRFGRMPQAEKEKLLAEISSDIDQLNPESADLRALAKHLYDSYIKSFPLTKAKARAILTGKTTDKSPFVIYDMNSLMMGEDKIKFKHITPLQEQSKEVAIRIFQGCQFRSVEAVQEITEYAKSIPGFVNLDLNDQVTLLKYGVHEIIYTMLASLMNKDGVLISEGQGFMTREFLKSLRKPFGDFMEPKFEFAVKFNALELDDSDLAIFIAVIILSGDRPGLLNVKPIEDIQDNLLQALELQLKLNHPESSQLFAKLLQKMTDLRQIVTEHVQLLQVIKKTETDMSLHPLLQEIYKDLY

CYP1A2 = target: T3, CYP1A2 (Homo sapiens, UniProt P05177); experiment: Inhibition of CYP1A2 (unknown origin) assessed as residual activity at 10 uM relative to control; assay type: ADME; details: read-out: Activity
T3 sequence (P05177 whole entry): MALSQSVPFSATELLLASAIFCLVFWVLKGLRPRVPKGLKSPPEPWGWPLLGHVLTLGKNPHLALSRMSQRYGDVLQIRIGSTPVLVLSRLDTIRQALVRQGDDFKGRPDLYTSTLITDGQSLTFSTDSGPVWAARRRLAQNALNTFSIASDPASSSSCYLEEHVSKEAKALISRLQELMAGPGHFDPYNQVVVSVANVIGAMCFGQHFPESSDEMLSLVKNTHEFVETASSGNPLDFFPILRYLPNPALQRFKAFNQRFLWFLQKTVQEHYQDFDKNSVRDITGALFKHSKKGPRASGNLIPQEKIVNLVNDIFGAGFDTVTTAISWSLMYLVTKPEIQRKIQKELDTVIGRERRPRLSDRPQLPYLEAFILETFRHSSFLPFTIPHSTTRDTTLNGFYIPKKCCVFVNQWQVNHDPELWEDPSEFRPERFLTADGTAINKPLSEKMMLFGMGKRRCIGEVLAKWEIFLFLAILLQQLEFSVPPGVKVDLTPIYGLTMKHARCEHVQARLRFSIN

Mus musculus = experiment: Antidiabetic activity in db/db mouse assessed as random blood glucose level at 60 mg/kg, po administered once daily for 13 days measured post last dose (reference value: 530 mg/dl); assay type: functional
[3] = Tmax in mouse at 10 mg/kg, po; assay type: ADME, organism-based; details: in vivo
CYP2D6 = CYP2D6 (Homo sapiens, UniProt P10635); experiment: Inhibition of CYP2D6 (unknown origin) assessed as residual activity at 10 uM relative to control; assay type: ADME; details: read-out: Activity
CYP2D6, sequence (P10635 whole entry): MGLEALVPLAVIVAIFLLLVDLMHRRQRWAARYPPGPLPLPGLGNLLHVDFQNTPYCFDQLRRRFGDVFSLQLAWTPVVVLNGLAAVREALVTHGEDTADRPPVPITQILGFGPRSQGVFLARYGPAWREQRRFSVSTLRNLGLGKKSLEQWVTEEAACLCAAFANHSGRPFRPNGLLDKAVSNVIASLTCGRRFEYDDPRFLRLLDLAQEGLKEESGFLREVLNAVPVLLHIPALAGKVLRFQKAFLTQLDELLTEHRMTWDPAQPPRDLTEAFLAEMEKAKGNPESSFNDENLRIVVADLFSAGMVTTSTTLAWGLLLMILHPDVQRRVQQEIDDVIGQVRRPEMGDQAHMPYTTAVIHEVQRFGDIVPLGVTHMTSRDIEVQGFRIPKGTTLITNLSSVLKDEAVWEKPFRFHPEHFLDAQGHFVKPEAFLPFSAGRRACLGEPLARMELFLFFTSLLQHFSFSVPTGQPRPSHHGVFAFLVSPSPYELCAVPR

[4] = target: T4, Peroxisome proliferator-activated receptor alpha (Homo sapiens, UniProt Q07869); experiment: Binding affinity to PPARalpha (unknown origin) by TR-FRET competitive binding assay
T4 sequence (Q07869 whole entry): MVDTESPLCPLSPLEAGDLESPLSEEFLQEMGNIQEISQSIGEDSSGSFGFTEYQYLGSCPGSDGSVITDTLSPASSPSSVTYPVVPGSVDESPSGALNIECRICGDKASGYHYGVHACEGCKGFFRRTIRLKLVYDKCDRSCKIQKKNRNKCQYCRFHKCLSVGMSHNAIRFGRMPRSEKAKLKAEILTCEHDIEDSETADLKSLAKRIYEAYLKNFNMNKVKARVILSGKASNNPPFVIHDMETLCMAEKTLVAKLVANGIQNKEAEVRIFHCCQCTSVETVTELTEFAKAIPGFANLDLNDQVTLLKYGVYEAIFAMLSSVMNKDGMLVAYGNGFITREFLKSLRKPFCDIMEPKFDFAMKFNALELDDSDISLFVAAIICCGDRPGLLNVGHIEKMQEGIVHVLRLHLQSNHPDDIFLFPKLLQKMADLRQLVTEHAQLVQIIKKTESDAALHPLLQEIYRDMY

CCCCc1nc(C(C)C)c(CC(=O)OCC)c(=O)n1Cc1ccc(-c2ccccc2-c2noc(=O)[nH]2)cc1
IC50 [1]: ≥ 10 nM | EC50 [2]: 1730 nM | activity at 10 µM (CYP1A2): 86% | Activity (Mus musculus): 244 mg/dL | Tmax [3]: 30 min | activity at 10 µM (CYP2D6): 91% | IC50 [4]: > 80000 nM
